These results are taken from the Deep4Chem optical property database.

The series in a line: solvent given as SMILES.
Where [1] appears, read: in c1ccc2c(c1)c1ccccc1n2-c1ccc(-c2ccc(-n3c4ccccc4c4ccccc43)cc2)cc1.

In turn, `COc1ccc(/C2=C3N=C(C(c4ccccc4)=C/3c3ccccc3)/C(c3ccc(OC)cc3)=c3\[nH]/c(c(-c4ccccc4)c3-c3ccccc3)=C(/c3ccc(OC)cc3)C3=N/C(=C(/c4ccc(OC)cc4)c4[nH]c2c(-c2ccccc2)c4-c2ccccc2)C(c2ccccc2)=C3c2ccccc2)cc1` displayed a fluorescence lifetime (in ClCCl) of 0.921 ns.
Consider `c1ccc(C2=Nc3cccc4[n+]3[B-](c3ccccc3)(N2)NC(c2ccccc2)=N4)cc1`, for which, where the note is “in ClCCl”, the fluorescence lifetime amounted to 2.5 ns.
`CN(C)c1ccc(/C=C/C=C/C=C/c2ccc(B(O)O)cc2)cc1` gave a fluorescence lifetime (in C1CCCCC1) of 0.75 ns.
`Cc1ccc(-c2ccc(/C=C/c3ccc([N+](=O)[O-])cc3)cn2)nc1`: the fluorescence lifetime (in CC#N) stood at 0.31 ns.
`CC(C)(C)c1ccc(-c2nc3c4ccc(-c5ccc6ccccc6c5)cc4c4cc(-c5ccc6ccccc6c5)ccc4c3n2-c2ccc(C(C)(C)C)cc2)cc1`: the fluorescence lifetime (in ClCCl) was 6.6 ns.
Consider `CCC1=C(C)C2=Cc3c(I)c(I)cn3[B-](F)(F)[N+]2=C1C`, for which the fluorescence lifetime is 0.212 ns (in C1CCCCC1); 0.097 ns (in CC(C)=O); 0.09 ns (in CCO); 0.116 ns (in CCOC(C)=O); 0.087 ns (in CO); 0.11 ns (in OCC(F)(F)F).
With `C(=C\c1ccc(N(c2ccccc2)c2ccccc2)cc1)/c1ccccc1`, the fluorescence lifetime (in CC#N) amounted to 1.37 ns and the fluorescence lifetime (in CCCCCC) was found to be 0.51 ns.
Regarding `c1ccc(Nc2nc(Nc3ccccc3)nc(Nc3ccc4c5cccc6cccc(c7cccc3c74)c65)n2)cc1`, the fluorescence lifetime reads like this: (in CCOC(C)=O) 3.6 ns; (in CS(C)=O) 4.3 ns.
Take `CC1=[O+][B-]2(OC(=O)C(=O)O2)OC(c2c3ccccc3cc3ccccc23)=C1`: the fluorescence lifetime runs as follows: (in CC#N) 2.1 ns; (in ClC(Cl)(Cl)Cl) 1.2 ns.
As for `CCCCCCC(CCCCCC)n1c(=O)c2c3ccc4cccc5c6cccc7ccc(c2c1=O)c(c76)c3c45`, the fluorescence lifetime by setting is: (in C1CCCCC1) 10.5 ns; (in CC#N) 7.5 ns; (in CC(C)=O) 7.8 ns; (in CCCCCC) 9.5 ns; (in CCO) 6.5 ns; (in CCOCC) 9.6 ns. The fluorescence lifetime by setting is: (in CS(C)=O) 7.7 ns; (in Cc1ccccc1) 9.2 ns; (in ClC(Cl)(Cl)Cl) 8.7 ns; (in ClC(Cl)Cl) 6.7 ns.
Compound `COc1ccc(C2=C3C=c4c(oc5cc6c(cc45)[C@H]4CC[C@]5(C)C(=O)CC[C@H]5[C@@H]4CC6)=[N+]3[B-](F)(F)n3c2cc2c4cc5c(cc4oc23)CC[C@@H]2[C@@H]5CC[C@]3(C)C(=O)CC[C@@H]23)cc1` returned a fluorescence lifetime (in CCOC(C)=O) of 3.94 ns, a fluorescence lifetime (in CCOCC) of 4.04 ns and a fluorescence lifetime (in CO) of 3.71 ns.
For `O=C1c2ccccc2-c2nc3c(F)c(F)c(F)c(F)c3n21`, the fluorescence lifetime (in ClCCl) was 9.5 ns.
Under “in CC#N”, `Cc1c2ccc3c(C)[n+](C)ccc3c2cc[n+]1C` had a fluorescence lifetime of 5.7 ns.
Consider `CC1=C(c2ccccc2)C(C)=[N+]2C1=C(c1c(-c3ccccn3)nc3ccccn13)c1c(C)c(-c3ccccc3)c(C)n1[B-]2(F)F`, for which the fluorescence lifetime (in ClCCl) came to 3.4 ns.
Same read-out and setting: as for `F[B-]1(F)n2c(c3cccc4cccc2c43)=Nc2cccc[n+]21`, the figure is 7.1 ns.
`O=C(c1ccc(N2c3ccccc3Sc3ccccc32)cc1)c1ccc2sc3ccccc3c2c1` yielded a fluorescence lifetime under setting [1] of 37.4 ns.
`C1=CC2C=c3c(cc4cccc5cc6ccccc6c3c45)C3=c4ccccc4=CC(=C1)C32` (stereo not drawn) registered a fluorescence lifetime (in ClCCl) of 3.16 ns.
Turning to `N#Cc1cnc(-c2c3ccccc3cc3ccccc23)nc1`, the fluorescence lifetime by setting is: (in CCO) 1.3 ns; (in ClCCl) 1.6 ns.
On to `C(#Cc1ccc(-n2c3ccccc3c3ccccc32)cc1)c1ccccc1`, for which the fluorescence lifetime was 4.36 ns (in CC#N); 2.6 ns (in CCCCC); 3.7 ns (in CO); 1.45 ns (in Cc1ccccc1); 1.59 ns (in ClC(Cl)Cl); 2.53 ns (in ClCCl).
`CC(C)(C)c1ccc2c(c1)c1cc(C(C)(C)C)ccc1n2-c1ccc(-c2ccc3c(c2)C(=O)c2ccc(-c4ccc(-n5c6ccc(C(C)(C)C)cc6c6cc(C(C)(C)C)ccc65)cc4)cc2C3=O)cc1`: the fluorescence lifetime runs as follows: (in Cc1ccccc1) 12.6 ns; under setting [1], 33 ns.
Regarding `c1ccc(-c2oc(-c3ccccc3)c3ccccc23)cc1`, the fluorescence lifetime by setting is: (in CCO) 4.72 ns; (in CN(C)C=O) 5.08 ns; (in CS(C)=O) 5.3 ns.
Take `COC(=O)c1cc(=O)n(Cc2ccccc2)c2cc(-c3ccc(OC)cc3)sc12`: the fluorescence lifetime (in ClCCl) turned out to be 2.06 ns.
In the case of `CCOC(=O)c1ccccc1-c1c2ccc(=O)cc-2oc2cc(OC(=O)[C@H](CO[Si](C)(C)C(C)(C)C)NC(=O)OC(C)(C)C)ccc12`, the fluorescence lifetime runs as follows: (in C1CCOC1) 2.3 ns; (in CC#N) 2.7 ns; (in CCO) 3.65 ns; (in CS(C)=O) 4.03 ns.
Where the note is “in CCO”, `Cc1cc2cc3cc(C)c(C)cc3cc2cn1` displayed a fluorescence lifetime of 18 ns.
Compound `CCN(CC)c1ccc2cc(-c3ccc(-c4ccc(-c5cc6ccccc6oc5=O)cc4)cc3)c(=O)oc2c1` registered a fluorescence lifetime (in ClCCl) of 9.88 ns.
The compound `CC(C)(C)c1ccc2c(c1)c1cc(C(C)(C)C)ccc1n2-c1ccc(C#Cc2ccc(C#Cc3ccc(C=C(C#N)C#N)cc3)cc2)cc1` gave a fluorescence lifetime (in ClCCl) of 3.7 ns.
For the compound `CCOC(=O)CCCCCn1c2ccc(OC)cc2c(=O)c2cc3c(cc21)c(=O)c1cc(OC)ccc1n3CCCCCC(=O)OCC`, for the setting “in CCO”, the fluorescence lifetime is 13.4 ns.
For the compound `c1ccc(-c2nc(-c3ccc(-c4nc(-c5ccccc5)c(-c5ccccc5)o4)cc3)oc2-c2ccccc2)cc1`, the fluorescence lifetime (in C1COCCO1) turned out to be 1.03 ns.
In the case of `Cn1c2ccccc2c(=O)c2ccccc21`, the fluorescence lifetime (in CS(C)=O) came to 8.85 ns.
Consider `COc1ccc(-c2ccc3c(c2)[Si](C)(C)c2cc(-c4ccc(OC)cc4)ccc2C=C3)cc1`, for which the fluorescence lifetime (in ClCCl) worked out at 1.4 ns.
Regarding `COc1ccc(/C=C/C2=CC(/C=C/c3ccc(OC)cc3)=[O+][B-](OC(C)=O)(OC(C)=O)O2)cc1`, the fluorescence lifetime (in C1CCOC1) was 2.38 ns; the fluorescence lifetime (in CC#N) came out at 2.09 ns; the fluorescence lifetime (in CC(C)=O) is 2.29 ns; the fluorescence lifetime (in CS(C)=O) is 2.26 ns; the fluorescence lifetime (in Cc1ccccc1) worked out at 2.45 ns; the fluorescence lifetime (in ClC(Cl)Cl) is 2.52 ns. Under “in ClCCl”, this compound came in with a fluorescence lifetime of 2.63 ns.
Take `c1ccc(-c2cnc3nn4ccccc4c3c2)cc1`: where the note is “in C1CCOC1”, the fluorescence lifetime came out at 4.7 ns.
Turning to `O=C(O)c1c2ccccc2nc2ccccc12`, the fluorescence lifetime turned out to be 1.1 ns (in C1CCOC1); 0.9 ns (in C1COCCO1); 0.8 ns (in CC#N); 0.7 ns (in CCCCCO); 0.8 ns (in CCCCO); 0.7 ns (in CCCO). Further, the fluorescence lifetime by setting is: (in CCO) 0.6 ns; (in CO) 0.8 ns; (in COCCOC) 1.5 ns; (in ClC(Cl)Cl) 0.6 ns; (in ClCCl) 0.9 ns; (in OCCO) 0.8 ns.
For `CN(c1ccccc1)c1ccc(N(c2ccccc2)c2ccc3ccc4c(N(c5ccccc5)c5ccc(N(C)c6ccccc6)cc5)ccc5ccc2c3c54)cc1`, the fluorescence lifetime (in ClCCl) is 1.1 ns.
`COc1ccc(-c2nc(-c3ccccc3O)c(-c3ccccc3O)n2-c2ccc(C)cc2)cc1`: the fluorescence lifetime runs as follows: (in C1CCOC1) 2.51 ns; (in CS(C)=O) 1.6 ns; (in ClC(Cl)Cl) 1.78 ns; (in ClCCl) 2.56 ns.
Turning to `CCCn1c2cccc3oc4cccc5oc6cccc1c6[c+](c45)c32`, the fluorescence lifetime (in CC#N) came out at 23.2 ns, the fluorescence lifetime (in CO) came out at 20.7 ns, the fluorescence lifetime (in ClCCl) came out at 21.8 ns and the fluorescence lifetime (in OCC(O)CO) was 19.7 ns.
`N#CC(C#N)=Cc1ccc(-c2ccc(N(c3ccccc3)c3ccccc3)cc2)s1`: the fluorescence lifetime (in ClC(Cl)Cl) is 2.5 ns.
The same measure, in the same setting: as for `CCCCCCCCCCCCOc1cc2c3c(ccc4c5c(NC6CCCCC6)cc6c7c(ccc(c1c34)c75)C(=O)N(C1CCCCC1)C6=O)C(=O)N(C1CCCCC1)C2=O`, the figure is 0.8 ns.
`CC(C)[Si](C#Cc1ccc(C#C[Si](C(C)C)(C(C)C)C(C)C)c2nc3cc4c(cc3nc12)[C@H]1c2ccccc2[C@@H]4c2ccccc21)(C(C)C)C(C)C`: the fluorescence lifetime was 3.1 ns (in CCCCCC) and 3.4 ns (in ClCCl).
With `CC1(C)c2ccccc2N(c2ccc(-c3ccc4c(c3)c3cc(-c5ccc(N6c7ccccc7C(C)(C)c7ccccc76)cc5)ccc3c3nc(C#N)c(C#N)nc43)cc2)c2ccccc21`, the fluorescence lifetime (in O=P(c1ccccc1)(c1ccccc1)c1cccc(-c2cc(-n3c4ccccc4c4ccccc43)cc(-n3c4ccccc4c4ccccc43)c2)n1) was 53.6 ns.
Consider `O=c1oc2ccccc2cc1/C=C/c1ccccc1`, for which, for the setting “in CC#N”, the fluorescence lifetime turned out to be 2.48 ns.
With `COc1ccc(-c2c3cc4ccccc4cc3c(C#Cc3ccccc3)c3cc4cc(C)sc4cc23)cc1`, the fluorescence lifetime (in ClCCl) came out at 11.6 ns.
The compound `CC1(C)c2ccccc2N(c2ccc(-c3ncccn3)cc2)c2ccccc21` displayed a fluorescence lifetime (in O=P(c1ccccc1)(c1ccccc1)c1ccc2oc3ccc(P(=O)(c4ccccc4)c4ccccc4)cc3c2c1) of 11 ns.
Take `CN(C)c1ccc(C2=Cc3cc(Cl)nc[n+]3[B-](F)(F)O2)cc1`: the fluorescence lifetime is, setting by setting: (in C1CCOC1) 2.6 ns; (in CC#N) 0.3 ns; (in CCCCCC) 1.9 ns; (in Cc1ccccc1) 2.3 ns; (in ClC(Cl)Cl) 2.5 ns; (in ClCCl) 2.8 ns.
Consider `COc1ccc(C#Cc2ccc(C#N)cc2)cc1OC`, for which the fluorescence lifetime runs as follows: (in C1COCCO1) 1.09 ns; (in CC#N) 2.03 ns; (in CCCCCC) 0.37 ns; (in CCCCCCC) 0.38 ns; (in CCCO) 0.95 ns; (in CCOC(C)=O) 1 ns. Further, the fluorescence lifetime is, setting by setting: (in CS(C)=O) 2.51 ns; (in ClC(Cl)Cl) 0.89 ns; (in ClCCl) 1.25 ns.
As for `CCCC(=O)c1c2c(c(C(=O)CCC)c3c1OC(CC(=O)OC)(C(=O)OC)O3)OCO2`, the fluorescence lifetime came out at 22.5 ns (in CC#N); 18.5 ns (in CCCCCC); 17.7 ns (in CCO); 11.9 ns (in CO); 25.1 ns (in ClCCl).
